# Measured values taken from paper PMC10154080 (Investigational new drugs, 2022).
# Where “and” joins values, the source holds several entries; their conditions need not be identical. Equal entries are not always repeated. Where two headings read alike, the source gives them in different places.
# Tests used:
# [1] = orthotopically implanted C6 glioma, rats; cited from earlier work
# [2] = cited from earlier work
# [3] = Systemic PK after oral administration in rats; type: in vivo; settings: plasma, oral 25 mg/kg, male SD rats
# [4] = Intracerebral microdialysis and plasma PK after i.p. administration in rats; type: in vivo, male SD rats
# [5] = mouse, microsomes
# [6] = rat, microsomes
# [7] = microsomes
# AMPK = settings: greater potency than Compound C; cited from earlier work
# ULK1 = settings: read-out: IC50 ULK1; kinase inhibition assays; cited from earlier work
# [8] = read-out: cytotoxicity IC50; cited from earlier work
# [9] = cited from earlier work; remark: listed apart in the source
# [10] = In vitro metabolism in rat liver microsomes; settings: rat (IGS SD) liver microsomes
# [11] = In vitro metabolism in mouse liver microsomes; settings: mouse (C57BL/6) liver microsomes
# [12] = In vitro metabolism in human liver microsomes
# [13] = brain ECF, i.p. 25 mg/kg, male SD rats
# [14] = i.p. 25 mg/kg, male SD rats, 25 mg/kg
# [15] = plasma unbound, i.p. 25 mg/kg, male SD rats
# [16] = plasma, i.p. 25 mg/kg, male SD rats
# [17] = plasma, i.p. 25 mg/kg, male SD rats, 25 mg/kg
structure (smiles),measurement,setting,value
N#Cc1ccc(C(c2ccc(C#N)cc2)n2cncn2)cc1 [letrozole],tumoral uptake relative to normal brain,[1],two-fold higher
Cn1nnc2c(C(N)=O)ncn2c1=O [temozolomide],elimination half-life,[2],approximately 2 h
CNC(=O)c1ccccc1Oc1nc(Nc2cc(OC)c(OC)c(OC)c2)ncc1Br [SBI-0206965],AUC0-inf,[3],703.74 ± 222.82 ng·h/mL
same,AUC0–5,[3],666.71 ± 215.16 ng·h/mL
same,Cmax,[3],539.06 ± 219.94 ng/mL
same,Tmax,[3]; non-compartmental analysis,15 min
same,AUC0-inf,[4]; [13],783.67 ± 494.92 ng·h/mL
same,AUC0–5,[4]; [13],660.81 ± 464.32 ng·h/mL
same,Tmax,[4]; [13],39 ± 12 min
same,Cmax,"[4]; brain ECF, i.p. 25 mg/kg, male SD rats, 25 mg/kg",358 ng/mL and 360 ng/mL and 358.33 ± 205.39 ng/mL
same,time to plasma and brain ECF peak levels,"[4]; plasma and brain ECF, summary in abstract",0.25 to 0.65 h
same,Cmax,"[4]; plasma unbound (corrected for protein binding), i.p. 25 mg/kg, male SD rats",615.03 ± 173.65 ng/mL
same,AUC0-inf,[4]; [15],798.89 ± 387.87 ng·h/mL
same,AUC0–5,[4]; [15],736.63 ± 358.26 ng·h/mL
same,AUC0-inf,[4]; [16],4549.50 ± 2208.84 ng·h/mL
same,AUC0–5,[4]; [16],4194.92 ± 2040.20 ng·h/mL
same,Tmax,[4]; [16],15 min
same,Cmax,[4]; [17],3502 ng/mL and 3502.42 ± 988.90 ng/mL
same,T1/2,[4]; [17],63.6 ± 42 min
same,time to peak plasma concentration,"[4]; plasma, i.p. 25 mg/kg, rats",15 min
same,Cmax,"[4]; read-out: brain ECF Cmax, brain ECF, i.p. 25 mg/kg, rats",750 nM
same,elimination half-life,[4]; summary in abstract,60 to 120 min
same,"CLint, app",[5],111.06 µL/min/mg
same,"CLint, app",[6],42 µL/min/mg
same,"CLint, app",[7]; human,71.96 µL/min/mg
same,"CLint, scaled (estimated in-vitro hepatic intrinsic clearance)",[7],68 mL/min/kg body weight
same,AMPK inhibition potency relative to Compound C,AMPK,40 fold
same,IC50,[8],5000 to 10000 nM
same,logP,[9],3.8
same,T1/2,[10],16.5 min
same,T1/2,[11],6.24 min
same,T1/2,[12],9.63 min
